The test system of assay [1] is MSTO-211H cells. The assay can be described thus: Cell proliferation inhibition experiment (CellTiter-Glo). As to conditions: 96 hours, read-out: Inhibitory activity of each compound on the proliferation of MSTO-211H cells (grades of IC50 values). It counts as cell-based. On the procedure:
In this example, the intracellular ATP was quantitatively determined by the CellTiter-Glo luminescence cell viability detection kit to detect the number of living cells in the culture.
Step 1: MSTO-211H (ATCC, CRL-2081TM) or NCI-H2052 (ATCC, CRL-5915TM) cells were inoculated in a 96-well plate at a density of 1500 cells per well with a volume of 100 μL per well, and the cells were incubated overnight in a 37° C., 5% carbon dioxide incubator. The culture medium used was RPMI1640 medium (GIBCO-A10491-01)+10% FBS (GIBCO-10099141C)+1% penicillin/streptomycin (Pen/Strep) (GIBCO-15070-063).
Step 2: The cells were treated with the compounds to be tested. The compounds to be tested were 3-fold diluted, and a total of 9 concentration gradients were set up; a certain volume of DMSO or the compounds to be tested was added to each well, respectively, and 2 replicates were set up for each concentration, and the final concentration of DMSO was controlled to be no higher than 0.5%. The cells were incubated for 96 hours in a 37° C., 5% carbon dioxide incubator.
Step 3: Cell viability was detected in the control group and treatment group using CellTiter-Glo Luminescent Cell Viability Assay kit (Promega, G7570). 50 μL of CellTiter-Glo was added to each well, mixed well, and incubated at room temperature for 10 minutes. The signal was read using En Vision® Multilabel Plate Reader (Perkin Elmer).
(§1) The inhibition percentage (%) was calculated using the following formula: […]
Using Graphpad Prism software, the IC50 values of the compounds inhibiting the CTG signal of cell proliferation activity was calculated.
Background: ATP-based viability assays read luminescence as a measure of living cells.

Assay [2] addresses YAP-TEAD protein interaction (His-TEAD1 (209-426) protein, Bio-YAP peptide (60-100)) (Homo sapiens, UniProt P28347). The assay is described as follows: YAP-TEAD protein interaction HTRF experiment. It counts as binding. As to conditions: His-TEAD1 (209-426) 10 nM, Bio-YAP peptide 50 nM, read-out: Activity of each compound in blocking YAP-TEAD protein interaction (grades of IC50 values). The procedure: In this example, the YAP-TEAD protein interaction HTRF experiment was used to detect the activity of each compound in blocking the YAP-TEAD protein interaction.
The experiment was carried out according to the following operation steps:
Step 1: His-TEAD1 (209-426) protein was added to a 384-well detection white plate to a final concentration of 10 nM, and buffer was used as the background signal well. The compounds to be tested were subjected to 3-fold dilution and a total of 10 concentration gradients were set up, and each diluted solution was mixed well. A certain volume of the compound to be tested was added to each well separately, 2 replicates were set for each concentration, and the final concentration of DMSO was controlled at 1%. Incubation was carried out at room temperature for 20 minutes. The amino acid sequence of TAED1 (209-426) used in this step is shown in SEQ ID NO: 1:
After mixing evenly, the mixture was incubated at room temperature for 10 minutes.
Step 3: Anti-His-Eu cryptate gold and streptavidin-XL665 were diluted according to the instructions and mixed in equal proportions. A certain volume of the detection reagent was added to the well, and the mixture was incubated at room temperature for 1 hour.
Step 4: The signal was detected using an Envision (Perkin Elmer) microplate reader at an excitation wavelength of 320 nm and emission wavelengths of 665 nm and 620 nm.
Step 5: The signal was calculated based on the ratio of Em665/Em620*10000.
as §1
The half-maximal inhibitory concentration (IC50) values were calculated using GraphPad Prism software.

In patent US20250177408A1, “INHIBITOR OF INTERACTION BETWEEN YAP/TAZ AND TEAD, PREPARATION THEREOF, PHARMACEUTICAL COMPOSITION THEREOF AND USE THEREOF” (ETERN BIOPHARMA (SHANGHAI) CO., LTD., priority 2022, published 2025) one finds IC50 data, which are given here for 16 compounds.

Counter-ions that a name gives are not always drawn. Like-named read-outs stand apart in the source and are kept apart here.

YAP-TEAD protein interaction (His-TEAD1 (209-426) protein, Bio-YAP peptide (60-100)), sequence (P28347 209-426): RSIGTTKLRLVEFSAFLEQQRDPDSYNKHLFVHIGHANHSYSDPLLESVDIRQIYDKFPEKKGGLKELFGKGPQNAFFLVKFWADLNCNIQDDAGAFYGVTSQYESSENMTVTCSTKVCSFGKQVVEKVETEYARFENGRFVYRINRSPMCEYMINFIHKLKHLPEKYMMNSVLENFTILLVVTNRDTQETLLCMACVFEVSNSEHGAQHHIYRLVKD

For `Cn1cc2c(n1)COc1c-2cc(C(N)=O)c(-c2c(Cl)c(F)cc3c2C[C@@](CN[C@H]2CC[C@H](C(N)=O)CC2)(c2ccccc2)O3)c1F` (atropisomer, axis not shown) [Compound 79], the values for the IC50 in assay [1] (Homo sapiens) and in assay [2] were 200 to 500 nM and less than 50 nM, respectively.
The corresponding values for `O=C(NC1CC1)c1cc2c(c(F)c1-c1c(Cl)c(F)cc3c1C[C@](c1ccccc1)([C@@H]1CCCN1)O3)Oc1c(cnn(CC(F)F)c1=O)O2` (atropisomer, axis not shown) [Compound 160] are less than 200 nM and less than 50 nM.
With `NC(=O)c1cc2c(c(F)c1-c1c(Cl)c(F)cc3c1C[C@](c1ccccc1)([C@@H]1CCCN1)O3)Oc1ccnnc1O2` [Compound 103, (S)-7-((S)-5-Chloro-6-fluoro-2-phenyl-2-((S)-pyrrolidin-2-yl)-2,3-dihydrobenzofuran-4-yl)-6-fluorobenzo[5,6][1,4]dioxo[2,3-c]pyridazine-8-carboxamide], the IC50 in assay [1] was 500 to 5000 nM; in assay [2], less than 50 nM.
The like results for “(S)-8-((S)-5-Chloro-6-fluoro-2-phenyl-2-((S)-pyrrolidin-2-yl)-2,3-dihydrobenzofuran-4-yl)-9-fluoro-3-methyl-4-oxo-3,4-dihydrobenzo[5,6][1,4]dioxo[2,3-d]pyrimidine-7-carboxamide [Compound 127]” were, in that order, 200 to 500 nM and less than 50 nM.
On to `NC(=O)c1cc2c(c(F)c1-c1c(Cl)c(F)cc3c1C[C@](c1ccccc1)([C@@H]1CCCN1)O3)OCc1n[nH]cc1-2` (atropisomer, axis not shown) [Compound 46, (S)-7-((S)-5-Chloro-6-fluoro-2-phenyl-2-((S)-pyrrolidin-2-yl)-2,3-dihydrobenzofuran-4-yl)-6-fluoro-2,4-dihydrochromeno[3,4-c]pyrazole-8-carboxamide], for which the IC50 in assay [1] (Homo sapiens) is less than 200 nM; in assay [2], less than 50 nM.
With `[2H]c1c([2H])c([2H])c([C@]2([C@@H]3CCCN3)Cc3c(cc(F)c(Cl)c3-c3c(C(N)=O)cc4c(c3F)OCc3nn(C)cc3-4)O2)c([2H])c1[2H]` (atropisomer, axis not shown) [Compound 116, (S)-7-((S)-5-Chloro-6-fluoro-2-(phenyl-d5)-2-((S)-pyrrolidin-2-yl)-2,3-dihydrobenzofuran-4-yl)-6-fluoro-2-methyl-2,4-dihydrochromeno[3,4-c]pyrazole-8-carboxamide], the IC50 in assay [1] (Homo sapiens) is less than 200 nM; in assay [2], less than 50 nM.
The like results for `NC(=O)c1cc2c(c(F)c1-c1c(Cl)c(F)cc3c1C[C@](c1ccccc1)([C@@H]1CCCN1)O3)Oc1cnn(CC(F)F)c(=O)c1O2` (atropisomer, axis not shown) [Compound 121, (S)-8-((S)-5-Chloro-6-fluoro-2-phenyl-2-((S)-pyrrolidin-2-yl)-2,3-dihydrobenzofuran-4-yl)-9-fluoro-3-(2,2-difluoroethyl)-4-oxo-3,4-dihydrobenzo[5,6][1,4]dioxo[2,3-d]pyridazine-7-carboxamide] were, in that order, 200 to 500 nM and less than 50 nM.
In the case of `NC(=O)c1cc2c(c(F)c1-c1c(Cl)c(F)cc3c1C[C@](c1ccccc1)([C@@H]1CCCN1)O3)Oc1nccnc1O2` (atropisomer, axis not shown) [Compound 10, (S)-8-((S)-5-Chloro-6-fluoro-2-phenyl-2-((S)-pyrrolidin-2-yl)-2,3-dihydrobenzofuran-4-yl)-9-fluorobenzo[5,6][1,4]dioxino[2,3-b]pyrazine-7-carboxamide], the IC50 in assay [1] (Homo sapiens) was less than 200 nM; in assay [2] it was less than 50 nM.
The corresponding values for `NC(=O)c1cc2c(c(F)c1-c1c(Cl)c(F)cc3c1C[C@](c1ccccc1)([C@@H]1CCCN1)O3)Oc1c(N)ncnc1O2` (atropisomer, axis not shown) [Compound 114, (S)-4-Amino-7-((S)-5-chloro-6-fluoro-2-phenyl-2-((S)-pyrrolidin-2-yl)-2,3-dihydrobenzofuran-4-yl)-6-fluorobenzo[5,6][1,4]dioxo [2,3-d]pyrimidine-8-carboxamide] are 500 to 5000 nM and less than 50 nM.
The corresponding values for `COCCn1ncc2c(c1=O)Oc1c(cc(C(N)=O)c(-c3c(Cl)c(F)cc4c3C[C@](c3ccccc3)([C@@H]3CCCN3)O4)c1F)O2` (atropisomer, axis not shown) [Compound 149, (R)-8-((S)-5-Chloro-6-fluoro-2-phenyl-2-((S)-pyrrolidin-2-yl)-2,3-dihydrobenzofuran-4-yl)-9-fluoro-2-(2-methoxyethyl)-1-oxo-1,2-dihydrobenzo[5,6][1,4]dioxa[2,3-d]pyridazine-7-carboxamide] are less than 200 nM and less than 50 nM.
The corresponding values for `[2H]C1([2H])CC[C@]([2H])([C@@]2(c3ccccc3)Cc3c(cc(F)c(Cl)c3-c3c(C(N)=O)cc4c(c3F)Oc3c(cnn(CC(F)(F)F)c3=O)O4)O2)N1` (atropisomer, axis not shown) [Compound 153, (S)-8-((S)-5-Chloro-6-fluoro-2-phenyl-2-((S)-pyrrolidin-2-yl-2,5,5-d3)-2,3-dihydrobenzofuran-4-yl)-9-fluoro-1-oxo-2-(2,2,2-trifluoroethyl)-1,2-dihydroxybenzo[5,6][1,4] dioxo [2,3-d]pyridazine-7-carboxamide] are less than 200 nM and less than 50 nM.
Regarding `NC(=O)c1cc2c(c(F)c1-c1c(Cl)c(F)cc3c1C[C@](c1ccccc1)([C@@H]1CCCN1)O3)Oc1c(cnn(CCC(F)(F)F)c1=O)O2` (atropisomer, axis not shown) [Compound 133, (S)-8-((S)-5-Chloro-6-fluoro-2-phenyl-2-((S)-pyrrolidin-2-yl)-2,3-dihydrobenzofuran-4-yl)-9-fluoro-2-(3,3,3-trifluoropropyl)-1-oxo-1,2-dihydrobenzo[5,6][1,4]dioxo[2,3-d]pyridazine-7-carboxamide], the IC50 in assay [1] (Homo sapiens) was less than 200 nM; in assay [2], less than 50 nM.
The like results for `NC(=O)c1cc2c(c(F)c1-c1c(Cl)c(F)cc3c1C[C@](c1ccccc1)([C@@H]1CCCN1)O3)Oc1c(ncn(C3CC3)c1=O)O2` (atropisomer, axis not shown) [Compound 139, (S)-7-((S)-5-Chloro-6-fluoro-2-phenyl-2-((S)-pyrrolidin-2-yl)-2,3-dihydrobenzofuran-4-yl)-3-cyclopropyl-6-fluoro-4-oxo-3,4-dihydrobenzo [5,6][1,4]dioxo [2,3-d]pyrimidine-8-carboxamide] were, in that order, less than 200 nM and less than 50 nM.
The like results for `NC(=O)c1cc2c(c(F)c1-c1c(Cl)c(F)cc3c1C[C@](c1ccccc1)([C@@H]1CCCN1)O3)Oc1ncccc1C2O` (stereo partly drawn) [Compound 104, (S)-8-((S)-5-Chloro-6-fluoro-2-phenyl-2-((S)-pyrrolidin-2-yl)-2,3-dihydrobenzofuran-4-yl)-9-fluoro-5-hydroxy-5H-benzo[2,3-b]pyridine-7-carboxamide] were, in that order, 200 to 500 nM and less than 50 nM.
In the case of `NC(=O)c1cc2cn[nH]c2c(F)c1-c1c(Cl)c(F)cc2c1C[C@](c1ccccc1)([C@@H]1CCCN1)O2` (atropisomer, axis not shown) [Compound I-30, (S)-6-((S)-5-Chloro-6-fluoro-2-phenyl-2-((S)-pyrrolidin-2-yl)-2,3-dihydrobenzofuran-4-yl)-7-fluoro-1H-indazole-5-carboxamide], the IC50 is 200 to 500 nM in assay [1] (Homo sapiens) and less than 50 nM in assay [2].
In the case of `COCCCNC[C@@]1(c2ccccc2)Cc2c(cc(F)c(Cl)c2-c2c(C(N)=O)cc3c(c2F)OCc2nn(C)cc2-3)O1` (atropisomer, axis not shown) [Compound 83, (S)-7-((S)-5-Chloro-6-fluoro-2-(((3-methoxypropyl)amino)methyl)-2-phenyl-2,3-dihydrobenzofuran-4-yl)-6-fluoro-2-methyl-2,4-dihydrochromeno[3,4-c]pyrazole-8-carboxamide formate], in assay [1] (Homo sapiens), the IC50 was less than 200 nM.
